Laboratory results from patent US20230139171A1 (SITA Information Networking Computing UK Limited, priority 2019, published 2023).

Assays:
Format in all cases: cell-based
human TLR9 = biological target: T1, human TLR9 (Homo sapiens, UniProt Q9NR96); experiment: TLR9 inhibition reporter assay (HEK-Blue cells, SEAP reporter, ODN2006 stimulation); conditions: HEK-Blue cells overexpressing human TLR9, SEAP reporter, ODN2006 5 nM
T1 construct: host or cells: HEK-Blue cells
T1 sequence (Q9NR96 26-1032): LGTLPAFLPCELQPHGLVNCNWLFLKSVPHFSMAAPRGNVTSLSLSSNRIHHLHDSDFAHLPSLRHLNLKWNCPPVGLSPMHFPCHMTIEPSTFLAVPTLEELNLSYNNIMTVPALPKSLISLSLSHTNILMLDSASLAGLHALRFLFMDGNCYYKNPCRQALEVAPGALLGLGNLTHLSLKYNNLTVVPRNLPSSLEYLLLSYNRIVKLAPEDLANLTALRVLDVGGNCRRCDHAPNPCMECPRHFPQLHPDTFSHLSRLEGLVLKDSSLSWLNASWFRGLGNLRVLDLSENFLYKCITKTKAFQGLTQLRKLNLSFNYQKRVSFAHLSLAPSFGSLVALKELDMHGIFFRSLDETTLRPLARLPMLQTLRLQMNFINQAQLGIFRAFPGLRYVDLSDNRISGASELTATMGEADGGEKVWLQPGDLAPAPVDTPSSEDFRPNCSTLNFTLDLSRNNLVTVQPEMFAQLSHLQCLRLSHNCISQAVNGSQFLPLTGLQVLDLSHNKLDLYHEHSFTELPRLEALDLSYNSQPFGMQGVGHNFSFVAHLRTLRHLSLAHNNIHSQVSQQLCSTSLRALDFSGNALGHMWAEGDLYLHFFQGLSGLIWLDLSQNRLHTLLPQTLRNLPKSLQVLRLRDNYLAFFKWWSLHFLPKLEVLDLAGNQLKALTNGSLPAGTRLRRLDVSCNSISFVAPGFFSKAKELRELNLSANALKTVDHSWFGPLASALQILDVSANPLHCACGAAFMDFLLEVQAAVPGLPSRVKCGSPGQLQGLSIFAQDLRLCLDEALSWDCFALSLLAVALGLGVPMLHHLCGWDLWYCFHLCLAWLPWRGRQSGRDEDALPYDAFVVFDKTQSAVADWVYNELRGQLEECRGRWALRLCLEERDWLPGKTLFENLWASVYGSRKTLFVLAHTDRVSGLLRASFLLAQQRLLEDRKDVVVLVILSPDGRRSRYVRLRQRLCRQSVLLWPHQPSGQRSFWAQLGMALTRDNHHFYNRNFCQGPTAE
Summary of the method: (§1)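 Compound treatment: 30 min, RT, 0.05 nM–50 μM final. Agonist: TLR7 gardiquimod 7.5 μM; TLR8 R848 15.9 μM; TLR9 ODN2006 5 nM. Incubation 22 h, 37 °C, 5% CO2. Readout SEAP, HEK-Blue Detection.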

human TLR7 = biological target: T2, human TLR7 (Homo sapiens, UniProt Q9NYK1); experiment: TLR7 inhibition reporter assay (HEK-Blue cells, SEAP reporter, gardiquimod stimulation); conditions: HEK-Blue cells overexpressing human TLR7, SEAP reporter, gardiquimod 7.5 μM; read-out: TLR7 IC50
T2 construct: host or cells: HEK-Blue cells
T2 sequence (Q9NYK1 27-1049): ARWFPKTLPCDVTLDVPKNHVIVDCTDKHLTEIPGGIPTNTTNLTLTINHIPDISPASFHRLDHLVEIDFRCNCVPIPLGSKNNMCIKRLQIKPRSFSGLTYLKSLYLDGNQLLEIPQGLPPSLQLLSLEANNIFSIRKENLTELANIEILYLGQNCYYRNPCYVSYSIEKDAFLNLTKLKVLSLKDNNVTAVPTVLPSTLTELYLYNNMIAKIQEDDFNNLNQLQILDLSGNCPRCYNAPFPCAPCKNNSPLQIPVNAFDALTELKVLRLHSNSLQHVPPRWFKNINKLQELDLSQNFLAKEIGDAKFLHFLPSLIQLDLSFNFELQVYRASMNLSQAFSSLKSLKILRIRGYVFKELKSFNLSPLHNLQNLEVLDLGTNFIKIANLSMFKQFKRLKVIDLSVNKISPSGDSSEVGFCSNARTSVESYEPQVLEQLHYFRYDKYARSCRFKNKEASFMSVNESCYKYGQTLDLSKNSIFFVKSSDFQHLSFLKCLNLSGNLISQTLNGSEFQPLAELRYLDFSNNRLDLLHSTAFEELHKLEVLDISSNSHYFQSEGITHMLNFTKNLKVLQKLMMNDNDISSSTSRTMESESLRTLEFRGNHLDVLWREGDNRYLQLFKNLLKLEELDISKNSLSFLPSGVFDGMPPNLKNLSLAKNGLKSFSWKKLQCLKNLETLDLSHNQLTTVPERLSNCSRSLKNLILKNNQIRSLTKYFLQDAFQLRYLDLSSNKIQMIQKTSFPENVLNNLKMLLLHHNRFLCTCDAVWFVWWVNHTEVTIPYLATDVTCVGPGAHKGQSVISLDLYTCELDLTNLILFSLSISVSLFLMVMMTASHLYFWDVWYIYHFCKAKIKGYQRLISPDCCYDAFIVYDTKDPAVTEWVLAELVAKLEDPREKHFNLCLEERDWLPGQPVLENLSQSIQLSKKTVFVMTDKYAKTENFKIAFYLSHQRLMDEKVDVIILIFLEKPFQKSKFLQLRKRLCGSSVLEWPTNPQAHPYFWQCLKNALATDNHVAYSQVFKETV
Summary of the method: as §1

human TLR8 = biological target: T3, human TLR8 (Homo sapiens, UniProt Q9NR97); experiment: TLR8 inhibition reporter assay (HEK-Blue cells, SEAP reporter, R848 stimulation); conditions: HEK-Blue cells overexpressing human TLR8, SEAP reporter, R848 15.9 μM; read-out: TLR8 IC50
T3 construct: host or cells: HEK-Blue cells
T3 sequence (Q9NR97 27-1041): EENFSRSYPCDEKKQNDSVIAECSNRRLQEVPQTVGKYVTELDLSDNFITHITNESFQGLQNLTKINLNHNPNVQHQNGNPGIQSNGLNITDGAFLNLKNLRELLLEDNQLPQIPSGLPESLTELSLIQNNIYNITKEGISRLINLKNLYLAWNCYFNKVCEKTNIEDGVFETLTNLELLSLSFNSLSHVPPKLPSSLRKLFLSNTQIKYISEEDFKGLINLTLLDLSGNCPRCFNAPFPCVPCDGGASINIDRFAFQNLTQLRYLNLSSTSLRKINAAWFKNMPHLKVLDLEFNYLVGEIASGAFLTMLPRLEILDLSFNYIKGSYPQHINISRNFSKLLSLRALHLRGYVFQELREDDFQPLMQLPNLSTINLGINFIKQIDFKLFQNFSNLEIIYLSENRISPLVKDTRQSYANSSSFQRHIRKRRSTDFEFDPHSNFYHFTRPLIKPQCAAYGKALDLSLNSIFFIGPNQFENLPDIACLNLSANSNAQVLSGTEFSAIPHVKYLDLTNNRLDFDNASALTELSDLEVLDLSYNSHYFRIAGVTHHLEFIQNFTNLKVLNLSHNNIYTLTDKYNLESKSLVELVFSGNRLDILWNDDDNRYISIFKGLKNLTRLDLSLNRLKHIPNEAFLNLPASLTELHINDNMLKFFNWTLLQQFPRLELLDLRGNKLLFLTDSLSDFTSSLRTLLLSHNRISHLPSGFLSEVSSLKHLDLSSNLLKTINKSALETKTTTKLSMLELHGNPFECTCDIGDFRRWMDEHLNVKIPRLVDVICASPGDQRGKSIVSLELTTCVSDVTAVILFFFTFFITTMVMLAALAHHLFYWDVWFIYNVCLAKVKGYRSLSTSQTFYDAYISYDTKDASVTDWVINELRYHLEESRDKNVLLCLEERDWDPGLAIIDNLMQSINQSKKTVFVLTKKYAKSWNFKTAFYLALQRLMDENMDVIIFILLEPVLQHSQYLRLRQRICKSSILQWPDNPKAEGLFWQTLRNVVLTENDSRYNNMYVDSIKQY
Summary of the method: as §1

| SMILES | IC50 (human TLR9) | IC50 (human TLR7) | IC50 (human TLR8) |
| --- | --- | --- | --- |
| Cc1c(-c2[nH]c3sc(C4CCC(NC(C)C)CC4)nc3c2C(C)C)cn(C)c(=O)c1C (single isomer, unassigned) [Example 253, 5-(6-isopropyl-2-(4-(isopropylamino)cyclohexyl)-4H-pyrrolo[3,2-d]thiazol-5-yl)-1,3,4-trimethylpyridin-2(1H)-one] | 23000 nM | 4.7 nM | 3.01 nM |
| Cc1c(-c2[nH]c3sc(C4CCC(NC(C)C)CC4)nc3c2C(C)C)cn(C)c(=O)c1C (single isomer, unassigned) [Example 254, 5-(6-isopropyl-2-(4-(isopropylamino)cyclohexyl)-4H-pyrrolo[3,2-d]thiazol-5-yl)-1,3,4-trimethylpyridin-2(1H)-one] | 29200 nM | 26.8 nM | 22.7 nM |
| Cc1c(-c2[nH]c3sc(C4CCC(N5CCC5)CC4)nc3c2C(C)C)cn(C)c(=O)c1C (single isomer, unassigned) [Example 255, 5-(2-(4-(azetidin-1-yl)cyclohexyl)-6-isopropyl-4H-pyrrolo[3,2-d]thiazol-5-yl)-1,3,4-trimethylpyridin-2(1H)-one] | 15100 nM | 6.86 nM | 4.88 nM |
| Cc1c(-c2[nH]c3sc(C4CCC(N5CCC5)CC4)nc3c2C(C)C)cn(C)c(=O)c1C (single isomer, unassigned) [Example 256, 5-(2-(4-(azetidin-1-yl)cyclohexyl)-6-isopropyl-4H-pyrrolo[3,2-d]thiazol-5-yl)-1,3,4-trimethylpyridin-2(1H)-one] | 16900 nM | 34.3 nM | 31.3 nM |
| Cc1c(-c2[nH]c3sc(C4CCC(NCC5(S(C)(=O)=O)CC5)CC4)nc3c2C(C)C)cn(C)c(=O)c1C (single isomer, unassigned) [Example 257, 5-(6-isopropyl-2-(4-(((1-(methylsulfonyl)cyclopropyl)methyl)amino)cyclohexyl)-4H-pyrrolo[3,2-d]thiazol-5-yl)-1,3,4-trimethylpyridin-2(1H)-one] | 34900 nM | 13.6 nM | 0.86 nM |
| Cc1c(-c2[nH]c3sc(C4CCC(NCC5(S(C)(=O)=O)CC5)CC4)nc3c2C(C)C)cn(C)c(=O)c1C (single isomer, unassigned) [Example 258, 5-(6-isopropyl-2-(4-(((1-(methylsulfonyl)cyclopropyl)methyl)amino)cyclohexyl)-4H-pyrrolo[3,2-d]thiazol-5-yl)-1,3,4-trimethylpyridin-2(1H)-one] | 29400 nM | 36.5 nM | 9.16 nM |
| Cc1c(-c2[nH]c3sc(C4CCC(N5CCNC(=O)C5)CC4)nc3c2C(C)C)cn(C)c(=O)c1C (single isomer, unassigned) [Example 259, 4-(4-(6-isopropyl-5-(1,4,5-trimethyl-6-oxo-1,6-dihydropyridin-3-yl)-4H-pyrrolo[3,2-d]thiazol-2-yl)cyclohexyl)piperazin-2-one] | > 50000 nM | 23.5 nM | 13.8 nM |
| Cc1c(-c2[nH]c3sc(C4CCC(N5CCNC(=O)C5)CC4)nc3c2C(C)C)cn(C)c(=O)c1C (single isomer, unassigned) [Example 260, 4-(4-(6-isopropyl-5-(1,4,5-trimethyl-6-oxo-1,6-dihydropyridin-3-yl)-4H-pyrrolo[3,2-d]thiazol-2-yl)cyclohexyl)piperazin-2-one] | > 50000 nM | 170 nM | 138 nM |
| Cc1c(-c2[nH]c3sc(C4CCC(N(C)C(C)C)CC4)nc3c2C(C)C)cn(C)c(=O)c1C (single isomer, unassigned) [Example 261, 5-(6-isopropyl-2-(4-(isopropyl(methyl)amino)cyclohexyl)-4H-pyrrolo[3,2-d]thiazol-5-yl)-1,3,4-trimethylpyridin-2(1H)-one] | 17100 nM | 8.43 nM | 2.26 nM |
| Cc1c(-c2[nH]c3sc(C4CCC(N(C)C(C)C)CC4)nc3c2C(C)C)cn(C)c(=O)c1C (single isomer, unassigned) [Example 262, 5-(6-isopropyl-2-(4-(isopropyl(methyl)amino)cyclohexyl)-4H-pyrrolo[3,2-d]thiazol-5-yl)-1,3,4-trimethylpyridin-2(1H)-one] | 18300 nM | 23.8 nM | 17.5 nM |
| Cc1c(-c2[nH]c3sc(C4CCC(N5CC(O)C5)CC4)nc3c2C(C)C)cn(C)c(=O)c1C (single isomer, unassigned) [Example 263, 5-(2-(4-(3-hydroxyazetidin-1-yl)cyclohexyl)-6-isopropyl-4H-pyrrolo[3,2-d]thiazol-5-yl)-1,3,4-trimethylpyridin-2(1H)-one] | 18100 nM | 4.74 nM | 4.48 nM |
| Cc1c(-c2[nH]c3sc(C4CCC(N5CC(O)C5)CC4)nc3c2C(C)C)cn(C)c(=O)c1C (single isomer, unassigned) [Example 264, 5-(2-(4-(3-hydroxyazetidin-1-yl)cyclohexyl)-6-isopropyl-4H-pyrrolo[3,2-d]thiazol-5-yl)-1,3,4-trimethylpyridin-2(1H)-one] | 22000 nM | 26.8 nM | 22.9 nM |
